Reference: PubChem BioAssay (NCI)
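Where inhibition never reached the appropriate level, the endpoint shown equals the highest concentration tested. Otherwise, values were interpolated linearly from a five-concentration, 48-hour dose response in 96-well plates. At the GI50, growth is halved. TGI marks complete inhibition of growth.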

Experiments:
Test in all cases: inhibition of tumour cell growth, NCI panel, 48 h
[1] = system: COLO 205 colon
[2] = system: DMS 114 small cell lung
[3] = system: DMS 273 small cell lung
[4] = system: HCT-15 colon
[5] = system: HOP-92 NSCLC
[6] = system: OVCAR-3 ovarian
[7] = system: SF-295 CNS
[8] = system: SK-OV-3 ovarian
[9] = system: SNB-19 CNS
[10] = system: T-47D breast

SMILES	TGI [1] [µM]	TGI [2] [µM]	TGI [3] [µM]	TGI [4] [µM]	TGI [5] [µM]	TGI [6] [µM]	TGI [7] [µM]	TGI [8] [µM]	TGI [9] [µM]	GI50 [1] [µM]	GI50 [3] [µM]	GI50 [4] [µM]	GI50 [5] [µM]	GI50 [6] [µM]	GI50 [7] [µM]	GI50 [8] [µM]	GI50 [9] [µM]	GI50 [10] [µM]	TGI [10] [µM]
Cn1sc2ccccc2c1=S	26.2	7.46	17.6	17.3	36.1	10.5	25.4	> 59.8	31.4	–	–	–	–	–	–	–	–	–	–
COc1ccccc1NC(=O)C(CC(C(=O)Nc1ccccc1OC)/C(C)=N/NC(=O)c1ccccc1O)/C(C)=N/NC(=O)c1ccccc1O (stereo not drawn)	> 100	> 100	> 100	–	> 100	> 100	> 100	> 100	> 100	–	–	–	–	–	–	–	–	–	–
COC(=O)C1=C(C)N(NC(N)=O)C(C)(O)C12CCOC2=O (stereo not drawn)	> 100	> 100	> 100	> 100	> 100	> 100	> 100	> 100	> 100	–	–	–	–	–	–	–	–	–	–
FC(F)(F)c1cccc(C2SCc3nc4ccccc4n32)c1 (stereo not drawn)	> 100	> 100	> 100	–	32.2	> 100	> 100	89.1	> 100	–	–	–	–	–	–	–	–	–	–
COc1ccc(C2C3=C(COC3=O)Oc3cc4c(cc32)OCO4)cc1 (stereo not drawn)	63.6	38.2	> 100	> 100	68.1	41.3	69.6	> 100	> 100	–	–	–	–	–	–	–	–	–	–
CCCCCCCCCCCCC(CCCCCCCCCCCC)OP(=O)(O)O	> 100	> 100	> 100	> 100	> 100	> 100	> 100	> 100	> 100	–	–	–	–	–	–	–	–	–	–
O=C(O)[C@@H](NS(=O)(=O)c1ccc([N+](=O)[O-])cc1)c1ccccc1	> 100	–	> 100	> 100	> 100	> 100	> 100	> 100	> 100	–	–	–	–	–	–	–	–	–	–
CCOC(=O)C(C(=O)OCC)=c1sc(=C(C(=O)OCC)C(=O)OCC)s1	> 100	–	> 100	> 100	> 100	> 100	> 100	> 100	–	–	–	–	–	–	–	–	–	–	–
CCCN1C(=O)CNC(=O)c2[nH]cnc21	> 100	> 100	–	> 100	> 100	> 100	> 100	> 100	> 100	–	–	–	–	–	–	–	–	–	–
COc1cc(Nc2nc3cc(C(F)(F)F)ccc3nc2C)cc(OC)c1OC	25.3	23.8	30	12.2	0.95	30.9	4.91	30.5	–	–	–	–	–	–	–	–	–	–	–
C=C[C@H]1C=Cc2c(OC)cccc2[C@@H]1COP1(=S)NC(C)C(c2ccccc2)O1 (stereo partly drawn)	> 100	> 100	> 100	–	–	> 100	> 100	> 100	> 100	–	–	–	–	–	–	–	–	–	–
c1ccc2c(CNCCCCCCCCCCCCNCc3cccc4ccccc34)cccc2c1	> 100	–	> 100	3.08	3.66	3.84	58.2	26.5	–	–	–	–	–	–	–	–	–	–	–
Cc1ccc(N2C(=O)C(Cl)=C(Cl)C2=O)cc1	30.7	36.5	> 100	33.3	32.4	30.5	> 100	> 100	> 100	–	–	–	–	–	–	–	–	–	–
O=NN(CCCl)C(=O)N[C@H]1CCCC[C@@H]1Cl	> 100	> 100	> 100	> 100	> 100	> 100	> 100	> 100	> 100	–	–	–	–	–	–	–	–	–	–
COC(=O)[C@@]12C=CC(=O)[C@H]3C[C@@H](C(C(C)C)C1)[C@]32OC (stereo partly drawn)	> 100	> 100	> 100	> 100	> 100	> 100	> 100	> 100	> 100	–	–	–	–	–	–	–	–	–	–
O=C(C=Nc1ccccc1C(=O)[O-])c1cccs1.O=C(C=Nc1ccccc1C(=O)[O-])c1cccs1.[Zn+2]	> 100	–	> 100	> 100	64	29.1	42.1	37.9	> 100	–	–	–	–	–	–	–	–	–	–
CCCCCCCCCCCCCCCCCC[N+](C)(C)Cc1ccc(C[N+](C)(C)CCCCCCCCCCCCCCCCCC)cc1	> 100	34.1	45.9	> 100	24.8	40.6	24.2	69.6	76.1	–	–	–	–	–	–	–	–	–	–
CCOC(=O)NC1CC2CCC1(OC)C=C2C (stereo not drawn)	> 100	> 100	> 100	> 100	> 100	> 100	> 100	> 100	> 100	–	–	–	–	–	–	–	–	–	–
COC(=O)Cc1cc(=O)n2c([nH]c3ccccc32)c1C#N	> 100	> 100	> 100	> 100	–	> 100	> 100	> 100	> 100	–	–	–	–	–	–	–	–	–	–
C[CH2][Sn]([CH2]C)([O]C(=O)c1ccc(F)cc1)[O][Sn]([CH2]C)([CH2]C)[O]C(=O)c1ccc(F)cc1	> 100	–	> 100	> 100	59	> 100	> 100	> 100	> 100	59.7	> 100	> 100	19.1	> 100	> 100	> 100	> 100	–	–

SMILES	TGI [1] [µM]	TGI [2] [µM]	TGI [3] [µM]	TGI [4] [µM]	TGI [5] [µM]	TGI [6] [µM]	TGI [7] [µM]	TGI [8] [µM]	TGI [9] [µM]	GI50 [1] [µM]	GI50 [3] [µM]	GI50 [4] [µM]	GI50 [5] [µM]	GI50 [6] [µM]	GI50 [7] [µM]	GI50 [8] [µM]	GI50 [9] [µM]	GI50 [10] [µM]	TGI [10] [µM]
Cc1ccccc1NC(=O)c1ccc([N+](=O)[O-])cc1	> 100	> 100	> 100	> 100	> 100	> 100	> 100	> 100	> 100	–	–	–	–	–	–	–	–	–	–
CC1=Nc2ccccc2C12C(c1ccccc1)C(c1ccccc1)C(=O)N1c3ccccc3CC12 (stereo not drawn)	> 100	> 100	> 100	> 100	> 100	> 100	> 100	> 100	> 100	–	–	–	–	–	–	–	–	–	–
CCOC(=O)c1cc(OC(=O)CC)c2c(OC)ccc(OC)c2c1	> 100	> 100	> 100	96.6	–	–	–	91.6	> 100	–	–	–	–	–	–	–	–	–	–
Nc1c2ccccc2nc2ccccc12 (tested in a mixture with another compound)	2.08	–	–	10.4	6.98	6.15	10.5	10.5	15.7	0.753	–	2.03	1.84	2.29	2.1	2.39	2.64	1.87	5.98
CC(CN)[C@@H]1CC[C@]2(CO)CC[C@]3(C)[C@H](CC[C@@H]4[C@@]5(C)CCC(N)C(C)(C)[C@@H]5CC[C@]43C)[C@@H]12 (stereo partly drawn)	3.68	–	–	3.49	3.07	3.24	3.41	3.29	3.29	1.91	–	1.69	1.45	1.71	1.74	1.86	1.79	1.84	3.99
C=C(CN(C)C)C(=O)c1ccc(Oc2ccccc2)cc1	3.35	–	46.8	11	> 25.5	13.2	38.3	47.9	28.8	–	–	–	–	–	–	–	–	–	13.7
O=C(NCCCCCCNC(=O)OCc1ccc2c(Cl)cc(Cl)c(O)c2n1)OCc1ccc2c(Cl)cc(Cl)c(O)c2n1	2.19	–	–	1.02	2.17	1.24	6.99	17.9	2.91	0.589	–	0.317	0.515	0.327	2.66	5.5	1.49	1.75	5.67
CC#CC(=O)N1CC[C@@H](n2c(=O)n(-c3ccc(Oc4ccccc4)cc3)c3c(N)ncnc32)C1	> 100	–	–	> 100	68.1	> 100	> 100	> 100	> 100	36.6	–	26.3	16.4	25.7	29.5	40.6	37.4	12.2	62.9
Clc1ccc2c(NCCNc3nc(N4CCCC4)nc4ccccc34)ccnc2c1	1.94	–	–	2.92	2.66	1.07	2.88	3.16	5.62	0.147	–	0.254	1.23	0.492	1.47	1.71	1.6	1.6	3.99
Nc1nc(-c2cccs2)cs1	> 100	–	–	> 100	> 100	> 100	> 100	> 100	> 100	–	–	–	–	–	–	–	–	–	> 100
O=C(Cc1ccccc1)NS(=O)(=O)c1ccccc1	> 100	> 100	> 100	–	> 100	> 100	> 100	> 100	> 100	–	–	–	–	–	–	–	–	–	–
C=C(C)[C@@H]1CC[C@]2(C(N)=O)CC[C@]3(C)[C@H](CC[C@@H]4[C@@]5(C)C/C(=C/c6cccnc6)[C@H](O)C(C)(C)[C@@H]5CC[C@]43C)[C@@H]12	12.4	–	–	> 100	> 100	> 100	> 100	> 100	> 100	3.1	–	2.6	6.37	5.02	3.75	5.26	6.02	3.38	> 100
CCN1CCN(c2ccc(Nc3ncc4ccc5ncn(C(C)C)c5c4n3)nc2)CC1	0.342	–	–	1.16	0.474	0.523	0.794	0.847	15.5	0.0852	–	0.0636	0.155	0.192	0.224	0.271	0.187	0.199	7.3
CC1=CC(=O)c2ccc(C)cc2C1=O	31.1	–	–	27.3	4.2	29.1	31.6	30.5	30	–	–	–	–	–	–	–	–	–	15
Cc1nn(C)c2cc(N(C)c3ccnc(Nc4cccc(S(N)(=O)=O)c4)n3)ccc12	> 25	–	–	> 25	> 25	> 25	> 25	> 25	> 25	> 17.3	–	9.02	4.39	8.19	10.1	> 11.8	13.2	> 7.8	> 21.1
O=S(=O)(Nc1ccccn1)c1ccc(N=Nc2ccc(O)c3ncccc23)cc1	26.2	–	–	15.7	5.34	11.4	4.86	6.59	> 53.3	7.62	–	0.844	1.21	1.13	2.14	1.7	0.771	2.98	8.7
C[C@@H]1OCC2(CCN(c3cnc(Sc4ccnc(N)c4Cl)c(N)n3)CC2)[C@@H]1N	> 100	–	–	> 100	0.788	> 100	> 100	> 100	> 100	> 100	–	> 100	0.0469	> 100	> 100	1.04	> 100	46.3	> 100
C=C1C(=O)O[C@H]2[C@H]1CC/C(COC(=O)NCc1cc(OC)cc(OC)c1)=C\CC[C@@]1(C)O[C@@H]21	3.09	–	–	2.25	3.18	2.31	22.3	26.1	22.2	1.35	–	0.77	1.42	1.01	7.78	12.8	5.32	1.85	4.83
COc1cc2c3c(n(CCCN4CCCC(O)C4)c(=O)c2cc1OC)-c1cc2c(cc1C3=O)OCO2 (stereo not drawn)	6.33	–	–	1.7	0.901	4.71	2.65	27.2	10.5	2.51	–	0.709	0.0312	2.14	< 0.005	3.8	0.6	1.16	3.2
